Laboratory results reported in ChEMBL document CHEMBL2034929, “A specific molecular beacon probe for the detection of human prostate cancer cells” (Bioorg Med Chem Lett, 2012).

Tests used:
[1] = Drug metabolism in human LNCAP cells at 10 uM after 26 hrs by UV-VIS spectrophotometry; format: ADME, cell-based; conditions: read-out: Drug metabolism
[2] = Drug metabolism in 0.10 M tris-maleate buffer at pH 8 assessed as formation of 2-[3-[[(3'6'-Dihydroxy-3-oxospiro[isobenzofuran-1(3H), 9'-[9H]xanthen]-6-yl)carbonyl]amino]-1-propyn-1-yl]-benzenemethanol by mass spectrometry in presence of porcine liver carboxylesterase; format: physicochemical; conditions: pig
LNCaP [3] = assay: Drug metabolism in human LNCAP cell lysates assessed as formation of 2-[3-[[(3'6'-Dihydroxy-3-oxospiro[isobenzofuran-1(3H), 9'-[9H]xanthen]-6-yl)carbonyl]amino]-1-propyn-1-yl]-benzenemethanol; format: ADME, cell-based, Lysate
LNCaP [4] = assay: Drug metabolism in human LNCAP cells at 10 uM after 30 mins by fluorescence microscopy; format: ADME, cell-based; conditions: 0.5 h
LNCaP [5] = assay: Drug metabolism in human LNCAP cell lysates at 10 uM after 26 hrs by fluorescence analysis relative to untreated human RWPE1 cells; format: ADME, cell-based, Lysate
LNCaP [6] = assay: Drug metabolism in human LNCAP cell lysates at 10 uM after 26 hrs by UV-VIS spectrophotometry relative to human RWPE1 cells; format: ADME, cell-based, Lysate
LNCaP [7] = assay: Drug metabolism in human LNCAP cell lysates at 10 uM after 26 hrs by fluorescence analysis relative to human RWPE1 cells; format: ADME, cell-based, Lysate
[8] = Drug metabolism in human RWPE1 cells at 10 uM after 30 mins by fluorescence microscopy; format: ADME, cell-based; conditions: rwpe-1, 0.5 h
[9] = Drug metabolism in 0.10 M tris-maleate buffer at pH 8 assessed as formation of N-[4-[(1E)-2-[4-(dimethylamino)phenyl]diazenyl]benzoyl]-glycine by mass spectrometry in presence of porcine liver carboxylesterase; format: physicochemical; conditions: pig
[10] = Drug metabolism in human RWPE1 cells at 10 uM after 26 hrs by UV-VIS spectrophotometry; format: ADME, cell-based, RWPE-1; conditions: read-out: Drug metabolism
LNCaP [11] = assay: Drug metabolism in human LNCAP cell lysates assessed as formation of N-[4-[(1E)-2-[4-(dimethylamino)phenyl]diazenyl]benzoyl]-glycine; format: ADME, cell-based, Lysate
LNCaP [12] = assay: Drug metabolism in human LNCAP cell lysates at 10 uM after 10 days by fluorescence analysis; format: ADME, cell-based, Lysate; conditions: 240 h
[13] = Drug metabolism in 0.10 M tris-maleate buffer at pH 8 assessed as increase in fluorescence at 10 uM after 5 hrs by UV-VIS spectrophotometry in presence of porcine liver carboxylesterase relative to control; format: physicochemical; conditions: pig, pH 8, 5 h

metabolised at 26 h, 10 µM [1]: 29%
Drug metabolism [2]: Active
Drug metabolism (LNCaP [3]): Active
Drug metabolism (LNCaP [4]): Active
fold change (FC) (LNCaP [5]): 30.8
fold change (FC) (LNCaP [6]): 2.9
fold change (FC) (LNCaP [7]): 3.8
Drug metabolism [8]: Not Active
Drug metabolism [9]: Active
metabolised at 26 h, 10 µM [10]: 10%
Drug metabolism (LNCaP [11]): Active
Drug metabolism (LNCaP [12]): Active
fold change (FC) [13]: 23
Structure (SMILES): CN(C)c1ccc(/N=N/c2ccc(C(=O)NCC(=O)OCc3ccccc3C#CCNC(=O)c3ccc4c(c3)C3(OC4=O)c4ccc(O)cc4Oc4cc(O)ccc43)cc2)cc1
